Values quoted from earlier work, collected in US20070042005A1, “Pharmaceutical composition comprising fungal cell or fragment thereof” (priority 2003, published 2007).
Values belong to the compound of their own block, whether it stands above or below them.

Assays:
[1] = rats
[2] = in animals; owing to poor intestinal permeability

oral absorption: poorly absorbed orally
SMILES: C[C@H](N[C@@H](CCc1ccccc1)C(=O)O)C(=O)N1CCC[C@H]1C(=O)O [Enalaprilat]

SMILES: CCCCCCCCCCCCCCCC(=O)OC(CC(=O)[O-])C[N+](C)(C)C (stereo not drawn) [Palmitoyl carnitine]
effect on bioavailability of cefoxitin [1]: increase the bioavailability of cefoxitin

oral bioavailability [2]: < 5%
SMILES: CO[C@@]1(NC(=O)Cc2cccs2)C(=O)N2C(C(=O)O)=C(COC(N)=O)CS[C@@H]21 [cefoxitin]
